Tests used:
Jurkat cells [1] = assay: growth and survival of Jurkat cells (Countess, Trypan blue); assay type: cell-based
Description: The effects of both inhibitors were tested also on growth of the non-adherent Jurkat cells. Total amount of cells and the number of dead cells was determined by the Countess (Invitrogen, Carlsbad, CA). […].

Jurkat cells [2] = assay: NADH levels in Jurkat cells (NADH/NAD fluorometric assay kit); assay type: cell-based, human; conditions: 24 hours after addition, different concentrations
Description: By inhibiting modified PFK-M enzyme in the cancer cells, glycolytic flux should be decreased and concomitantly NADH levels reduced. To verify that, the amounts of reduced pyridine nucleotide was measured by NADH/NAD fluorometric assay kit (Abcam). The Jurkat cells were seeded into the wells of 96 wells plate at 5×10^5 cells per mL. The untreated cells (control) and the cells with specified amounts of added Inhibitors No. 3 and No. 9 were incubated for 24 hours.

MCF-10A cell line = assay: lactate excretion by non-tumorigenic MCF-10A cells; assay type: cell-based
Description: The effect of Inhibitor No. 3 on lactate excretion was tested also on two non-tumorigenic cell lines. First, fast proliferating human embryonic kidney (HEK 293) cells were assessed for lactate formation in the presence of Inhibitor No. 3. RPMI 1640 GlutaMAX medium (Thermo Fisher) supplemented with 10% FBS was used as a growth medium. […] About 95 mg/L of lactate were detected after 72 hours of incubation by untreated cells (control) and by the cells growing in the presence of Inhibitor No. 3 (Figure 9a). Similar results were recorded also by non-tumorigenic MCF-10A cell line isolated form the epithelial cells of the mammary gland. The cells were cultivated in MEBM medium supplemented by additives that were obtained as a MEGM Kit from Lonza/Clonetics Corporation. Characteristically these cells grew slower than HEK 293 cells with correspondingly slower lactate excretion rate. After 96 hours of incubation, only about 27 mg/L of lactate was detected in the medium. Again, no influence of different concentrations of Inhibitor No. 3 on lactate generation could be observed (Figure 9b).

COLO 829 cells = assay: lactate excretion by COLO 829 cells; assay type: cell-based; conditions: inhibitor added 8 hours after inoculation, then at 24-hour intervals; low concentrations (from 10 µM)
Caco-2 cells = assay: cytotoxicity in Caco-2 cells (lactate dehydrogenase (LDH) kit); assay type: cell-based
Description: Lactate generation, growth yield and survival under normal and inhibitory conditions of three different tumorigenic cells lines were determined in more detailed measurements. […] Cytotoxicity was measured by the Lactate dehydrogenase (LDH) kit (Roche).

[3] = biological target: T1, modified (47 kDa) 6-phosphofructo-1-kinase (PFK-M), sfPFK-M fragments (Homo sapiens, UniProt P08237); assay: in vitro inhibition of purified recombinant modified (cancer-specific) PFK-M fragments
T1 sequence (P08237 1-443 limits assumed): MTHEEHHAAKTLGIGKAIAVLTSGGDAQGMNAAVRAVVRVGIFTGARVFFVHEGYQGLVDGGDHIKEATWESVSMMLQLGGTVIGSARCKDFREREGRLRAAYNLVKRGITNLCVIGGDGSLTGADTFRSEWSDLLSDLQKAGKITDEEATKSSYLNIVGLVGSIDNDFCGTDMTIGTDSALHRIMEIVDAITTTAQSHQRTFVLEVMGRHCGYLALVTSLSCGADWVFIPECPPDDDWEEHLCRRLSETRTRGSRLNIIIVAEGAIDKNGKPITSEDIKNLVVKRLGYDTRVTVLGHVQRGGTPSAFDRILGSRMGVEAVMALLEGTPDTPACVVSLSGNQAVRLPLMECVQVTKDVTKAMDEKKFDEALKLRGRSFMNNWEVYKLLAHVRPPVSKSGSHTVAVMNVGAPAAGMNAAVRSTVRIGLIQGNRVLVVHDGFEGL
Description: Initially, all compounds were tested in vitro for inhibition of the purified human native enzyme (85 kDa) and modified cancer-specific shorter fragments (47 kDa) of muscle type PFK-M, followed by measurements of the purified native enzyme (85 kDa) and shorter fragments (70 kDa) of liver type PFK-L isoform.
Selected compounds were tested for in vitro inhibition of isolated recombinant human native and modified PFK-M enzymes.
The yeast transformant encoding the native human PFK-M enzyme was designated as nPFKM strain while transformant encoding cancer specific shorter fragments was designated as sfPFKM strain. […] For the enzymatic measurements, all the substrates (F6P and ATP), auxiliary enzymes, NADH and inhibitors dissolved in DMSO were added first to the buffer with PEG. After thorough mixing of the buffer with all ingredients, the enzymatic reaction started by the insertion of the purified recombinant enzymes.

O=C(CSc1nnc(-c2ccc3c(c2)OCO3)o1)Nc1ccon1 [Inhibitor No. 3, 2-[(5-benzo[1,3]dioxol-5-yl-1,3,4-oxadiazol-2-yl)sulfanyl]-N-isoxazol-3-yl-acetamide]
dead cells (Jurkat cells [1]; Jurkat cells stained with Tripan blue): 3,21±0,27%
effect on growth of Jurkat cells (total cell numbers) (Jurkat cells [1]; different concentrations, 72 hours): remarkable reduction of growth rate at concentrations higher than 25 µM
NADH levels (Jurkat cells [2]): steadily decreased in dose dependent manner
lactate detected in the medium, MCF-10A (MCF-10A cell line; after 96 hours of incubation, no influence of inhibitor concentration): about 27 mg/L
influence on lactate generation, MCF-10A (MCF-10A cell line; different concentrations, 96 hours): no influence
lactate formation in COLO 829 cells, sequential re-insertion (COLO 829 cells): strong reduction of lactate formation
average percentages of dead cells, Caco-2, sequential re-insertion (Caco-2 cells; sequential addition at 24-hour intervals, 92 hours, average over medium without and with inhibitor): 5,38±0,4%
average percent of dead cells, Caco-2 (Caco-2 cells; single addition, average over control and different concentrations of inhibitor): 3,99±0,08%
IC50 [3]: ~15 µM

Source: patent EP3833345B1, “SMALL MOLECULE-INHIBITORS OF 6-PHOSPHOFRUCTO-1-KINASE FOR REDUCING LACTATE GENERATION BY CANCER CELLS” (Kemijski Institut, priority 2018, dated 2020)
